Patent US10668081B2, “Prostamide-containing intraocular implant” (Allergan, Inc., priority 2013, dated 2020)

Assays:
[1] = test system: intraocular pressure in dogs; assay: IOP reduction after topical administration to normotensive dogs; assay type: in vivo, dog; conditions: topical 25 μL, 6 hours after administration
Text: (§1) A series of prostamides were selected as potential candidates for an intracameral biodegradable drug delivery system (e.g., an implant) and tested for their ability to lower IOP by direct administration to the aqueous humor (therefore, by intracameral administration). Table 1 lists the EC50 values (nM) obtained from the feline (cat) iris assay, calculated log P values (clog P), and IOP reduction values obtained after either topical or intracameral administration for different prostamides. Intracameral drug administration was accomplished by placing an infusion pump in the subcutaneous pocket in the neck of dogs with a cannula running into the anterior chamber of the eye. Test runs were carried out to measure and compare the concentration of the compound in the solution exiting the pump with that initially added to the pump in order to confirm the dosing level.

[2] = test system: intraocular pressure in dogs; assay: IOP reduction after intracameral administration by infusion pump in dogs; assay type: in vivo, dog; conditions: for Intracameral Administration (dogs) Max IOP reduction: infusion pump into anterior chamber, 2-3 weeks, vs baseline
Text: as §1

Prostamide/FP receptor = Prostamide/FP receptor (Felis catus, UniProt A0ABI7XJ69); assay: Cat iris sphincter assay (contraction of isolated feline iris sphincter muscle); assay type: cell-based
Chain of Prostamide/FP receptor (A0ABI7XJ69 entry or part of it): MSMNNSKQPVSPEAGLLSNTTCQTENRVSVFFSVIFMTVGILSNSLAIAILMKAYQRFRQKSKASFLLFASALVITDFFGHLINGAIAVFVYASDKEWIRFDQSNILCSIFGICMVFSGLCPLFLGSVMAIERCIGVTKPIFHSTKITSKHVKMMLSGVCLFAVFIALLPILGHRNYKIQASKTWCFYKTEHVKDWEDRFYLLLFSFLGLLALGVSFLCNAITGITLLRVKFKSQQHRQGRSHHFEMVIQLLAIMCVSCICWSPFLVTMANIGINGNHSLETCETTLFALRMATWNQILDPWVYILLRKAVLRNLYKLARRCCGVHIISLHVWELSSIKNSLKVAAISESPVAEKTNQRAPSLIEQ

NC(=O)CCC/C=C\C[C@@H]1[C@@H](/C=C/[C@@H](O)CCc2cc(Cl)sc2Cl)[C@H](O)C[C@@H]1O [Compound 1]
Topical Administration (dogs) IOP reduction ([1]; concentration 0.03% (w/v)): −5 mm Hg | Intracameral Administration (dogs) Max IOP reduction ([2]; dose 15 ng/day): ~35% | IOP reduction when administered intracamerally, compared with bimatoprost (in words) ([2]; normotensive dog eye, directly to the anterior chamber): reduces IOP effectively and much more efficiently than bimatoprost

CCNC(=O)CCC/C=C\C[C@@H]1[C@@H](/C=C/[C@@H](O)CCc2ccccc2)[C@H](O)C[C@@H]1O [Compound 3, Bimatoprost]
Topical Administration (dogs) IOP reduction ([1]; concentration 0.01% (w/v)): −3.6 mm Hg | Intracameral Administration (dogs) Max IOP reduction ([2]; dose 108 ng/day): ~45%

CCNC(=O)CCC/C=C\C[C@@H]1[C@@H](/C=C/[C@@H](O)CCc2cc(Br)c(C)s2)[C@H](O)C[C@@H]1O [Compound 4]
Topical Administration (dogs) IOP reduction ([1]; concentration 0.03% (w/v)): −3 mm Hg | Intracameral Administration (dogs) Max IOP reduction ([2]; dose 15 ng/day): <10% | EC50 (Prostamide/FP receptor): 25 nM

CCCCC[C@@H](/C=C/[C@@H]1[C@@H](C/C=C\CCCC(N)=O)[C@@H](O)C[C@H]1O)OC [Compound 5]
Topical Administration (dogs) IOP reduction ([1]; concentration 0.01% (w/v)): −3 to −4 mm Hg | Intracameral Administration (dogs) Max IOP reduction ([2]; dose 100 ng/day): ~20%
